Reference: patent US20260001928A1 (CORTERIA PHARMACEUTICALS, priority 2022, published 2026)
*1 amine or outer side, *2 acyl side, *3 side chain or, on linkers, in order; H or OH if unused. Where a SMILES comes first, the peptide text is derived from it. Side-chain parts run from the residue outwards. [ ]: non-standard residue; d: D form. The star is where a group is joined. C20 diacid = O=C(O)CCCCCCCCCCCCCCCCCCC(=O)*; C16 diacid = O=C(O)CCCCCCCCCCCCCCC(=O)*; γGlu = O=C(O)[C@H](CCC(=O)[*:2])N[*:1]; Api = NC1(C(=O)O)CCNCC1; Hexanoyl = CCCCCC(=O)*; Pentanoyl = CCCCC(=O)*; Aib = CC(C)(N)C(=O)O

Columns and labels:
human CRF2a receptor = target: T1, human CRF2a receptor (Homo sapiens, UniProt Q13324); experiment: Activity at human CRF2a receptor, cAMP functional assay in TeloHEAC cells; assay type: cell-based; settings: TeloHEAC cells stably expressing human CRF2a receptor, relative to urocortin 2 (100 nM = 100%)
T1 construct: expressed in transfected cells; host or cells: TeloHEAC cells
T1 sequence (Q13324 1-411): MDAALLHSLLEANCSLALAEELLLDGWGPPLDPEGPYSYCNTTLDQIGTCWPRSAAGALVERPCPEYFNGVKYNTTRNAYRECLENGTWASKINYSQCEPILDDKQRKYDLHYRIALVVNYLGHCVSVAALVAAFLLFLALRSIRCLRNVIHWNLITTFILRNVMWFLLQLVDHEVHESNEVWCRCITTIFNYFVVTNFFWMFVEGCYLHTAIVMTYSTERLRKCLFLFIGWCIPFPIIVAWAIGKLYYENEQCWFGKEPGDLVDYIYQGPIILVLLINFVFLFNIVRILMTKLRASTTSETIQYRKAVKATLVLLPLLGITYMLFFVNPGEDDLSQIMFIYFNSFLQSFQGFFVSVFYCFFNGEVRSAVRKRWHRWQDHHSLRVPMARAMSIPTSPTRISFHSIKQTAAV
Summary of the method: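 TeloHEAC cells stably expressing human CRF2a (10000 cells/well, suspended in HBSS/20 mM HEPES with 2 mM IBMX) were exposed to compounds for 30 min at 37 °C. cAMP was read as the 665/620 nm fluorescence ratio after 1 h at room temperature. EC50 was derived relative to 100 nM urocortin 2, set as 100%.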

CFR1R receptor = target: T2, CFR1R receptor (Homo sapiens, UniProt P34998); experiment: Activity at anti-target CFR1R receptor, cAMP assay in CRF1R-overexpression CHO-K1 cells; assay type: cell-based; settings: 100% = Sauvagine at 100 nM; for EC50: cAMP
T2 construct: host or cells: CHO-K1 (clone 2)
T2 sequence (P34998 24-415): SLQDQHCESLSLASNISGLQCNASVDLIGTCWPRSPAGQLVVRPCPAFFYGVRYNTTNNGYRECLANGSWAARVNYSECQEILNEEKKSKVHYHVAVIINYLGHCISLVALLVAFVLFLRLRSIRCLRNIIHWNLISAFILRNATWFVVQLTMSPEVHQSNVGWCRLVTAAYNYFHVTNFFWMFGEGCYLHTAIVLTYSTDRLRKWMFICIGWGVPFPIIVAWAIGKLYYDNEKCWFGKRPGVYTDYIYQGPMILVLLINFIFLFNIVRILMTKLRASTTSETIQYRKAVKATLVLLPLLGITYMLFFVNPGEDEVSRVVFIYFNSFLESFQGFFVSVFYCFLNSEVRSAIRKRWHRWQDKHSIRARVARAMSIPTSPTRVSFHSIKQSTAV
Summary of the method: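 Signal is normalised to 100 nM Sauvagine, taken as 100% activation, in clone 2 cells plated at a final 4000 cells/well from frozen stocks.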

CCCCCC(=O)N[C@H](C(=O)N[C@@H](CC(C)C)C(=O)N[C@@H](CO)C(=O)N[C@@H](CC(C)C)C(=O)N[C@@H](CC(=O)O)C(=O)N[C@@H](C(=O)N1CCC[C@H]1C(=O)N[C@H](C(=O)N[C@@H](CCCCN)C(=O)N[C@@H](CC(C)C)C(=O)N[C@@H](CCCCNC(=O)CC[C@H](NC(=O)CCCCCCCCCCCCCCC(=O)O)C(=O)O)C(=O)N[C@@H](CCCCN)C(=O)N[C@H](C(=O)N[C@@H](CC(C)C)C(=O)N[C@@H](CC(C)C)C(=O)N[C@@H](CCC(=O)O)C(=O)N[C@@H](CCC(N)=O)C(=O)N[C@@H](CCC(=O)O)C(=O)N[C@@H](CCCCN)C(=O)N[C@@H](CCC(N)=O)C(=O)N[C@@H](CCCCN)C(=O)N[C@@H](CCCCN)C(=O)N[C@@H](CCC(N)=O)C(=O)N[C@@H](CCCNC(=N)N)C(=O)N[C@@H](CCC(=O)O)C(=O)N[C@@H](CCC(N)=O)C(=O)N[C@@H](C)C(=O)N[C@@H](CCC(=O)O)C(=O)N[C@H](C(=O)N[C@@H](CC(N)=O)C(=O)NC(C)(C)C(=O)N[C@@H](CCC(N)=O)C(=O)N[C@H](C(=O)N[C@@H](CC(C)C)C(=O)N[C@@H](C)C(=O)N[C@@H](CCC(N)=O)C(=O)N[C@H](C(N)=O)C(C)C)[C@@H](C)CC)[C@@H](C)O)[C@@H](C)CC)[C@@H](C)CC)C(C)C)C(C)C [compound 156] (Hexanoyl-VLSLD[dV]PIKLK([γGlu-C16 diacid])KILLEQEKQKKQREQAETN[Aib]QILAQV-NH2)
EC50 (human CRF2a receptor): 0.29 nM
Emax (% I) (CFR1R receptor): 8 % I
EC50 (CFR1R receptor): > 250 nM

CC[C@H](C)[C@H](NC(C)=O)C(=O)N[C@H](C(=O)N[C@@H](CC(C)C)C(=O)N[C@@H](CO)C(=O)N[C@@H](CC(C)C)C(=O)N[C@@H](CC(=O)O)C(=O)N[C@@H](C(=O)N1CCC[C@H]1C(=O)N[C@H](C(=O)N[C@@H](CCCCN)C(=O)N[C@@H](CC(C)C)C(=O)N[C@@H](CCCCNC(=O)CC[C@H](NC(=O)CCCCCCCCCCCCCCCCCCC(=O)O)C(=O)O)C(=O)N[C@@H](CCCCN)C(=O)N[C@H](C(=O)N[C@@H](CC(C)C)C(=O)N[C@@H](CC(C)C)C(=O)N[C@@H](CCC(=O)O)C(=O)N[C@@H](CCC(N)=O)C(=O)N[C@@H](CCC(=O)O)C(=O)N[C@@H](CCCCN)C(=O)N[C@@H](CCC(N)=O)C(=O)N[C@@H](CCCCN)C(=O)N[C@@H](CCCCN)C(=O)N[C@@H](CCC(N)=O)C(=O)N[C@@H](CCCNC(=N)N)C(=O)N[C@@H](CCC(=O)O)C(=O)N[C@@H](CCC(N)=O)C(=O)N[C@@H](C)C(=O)N[C@@H](CCC(=O)O)C(=O)N[C@H](C(=O)N[C@@H](CC(N)=O)C(=O)NC1(C(=O)N[C@@H](CCC(N)=O)C(=O)N[C@H](C(=O)N[C@@H](CC(C)C)C(=O)N[C@@H](C)C(=O)N[C@@H](CCC(N)=O)C(=O)N[C@H](C(N)=O)C(C)C)[C@@H](C)CC)CCNCC1)[C@@H](C)O)[C@@H](C)CC)[C@@H](C)CC)C(C)C)C(C)C [compound 207] (Ac-IVLSLD[dV]PIKLK([γGlu-C20 diacid])KILLEQEKQKKQREQAETN[Api]QILAQV-NH2)
EC50 (human CRF2a receptor): 0.12 nM
Emax (% I) (CFR1R receptor): 65 % I

CCCCC(=O)N[C@H](C(=O)N[C@@H](CC(C)C)C(=O)N[C@@H](CO)C(=O)N[C@@H](CC(C)C)C(=O)N[C@@H](CC(=O)O)C(=O)N[C@@H](C(=O)N1CCC[C@H]1C(=O)N[C@H](C(=O)NCC(=O)N[C@@H](CC(C)C)C(=O)N[C@@H](CCCCNC(=O)CC[C@H](NC(=O)CCCCCCCCCCCCCCCCCCC(=O)O)C(=O)O)C(=O)N[C@@H](CCCCN)C(=O)N[C@H](C(=O)N[C@@H](CC(C)C)C(=O)N[C@@H](CC(C)C)C(=O)N[C@@H](CCC(=O)O)C(=O)N[C@@H](CCC(N)=O)C(=O)N[C@@H](CCC(=O)O)C(=O)N[C@@H](CCCCN)C(=O)N[C@@H](CCC(N)=O)C(=O)N[C@@H](CCCCN)C(=O)N[C@@H](CCCCN)C(=O)N[C@@H](CCC(N)=O)C(=O)N[C@@H](CCCNC(=N)N)C(=O)N[C@@H](CCC(=O)O)C(=O)N[C@@H](CCC(N)=O)C(=O)N[C@@H](C)C(=O)N[C@@H](CCC(=O)O)C(=O)N[C@H](C(=O)N[C@@H](CC(N)=O)C(=O)NC(C)(C)C(=O)N[C@@H](CCC(N)=O)C(=O)N[C@H](C(=O)N[C@@H](CC(C)C)C(=O)N[C@@H](C)C(=O)N[C@@H](CCC(N)=O)C(=O)N[C@H](C(N)=O)C(C)C)[C@@H](C)CC)[C@@H](C)O)[C@@H](C)CC)[C@@H](C)CC)C(C)C)C(C)C [compound 228] (Pentanoyl-VLSLD[dV]PIGLK([γGlu-C20 diacid])KILLEQEKQKKQREQAETN[Aib]QILAQV-NH2)
EC50 (human CRF2a receptor): 0.19 nM
Emax (% I) (CFR1R receptor): 62 % I

CC[C@H](C)[C@H](NC(C)=O)C(=O)N[C@H](C(=O)N[C@@H](CC(C)C)C(=O)N[C@@H](CO)C(=O)N[C@@H](CC(C)C)C(=O)N[C@@H](CC(=O)O)C(=O)N[C@@H](C(=O)N1CCC[C@H]1C(=O)N[C@H](C(=O)N[C@@H](CCCCN)C(=O)N[C@@H](CC(C)C)C(=O)N[C@@H](CCCCNC(=O)CC[C@H](NC(=O)CCCCCCCCCCCCCCC(=O)O)C(=O)O)C(=O)N[C@@H](CCCCN)C(=O)N[C@H](C(=O)N[C@@H](CC(C)C)C(=O)N[C@@H](CC(C)C)C(=O)N[C@@H](CCC(=O)O)C(=O)N[C@@H](CCC(N)=O)C(=O)N[C@@H](CCC(=O)O)C(=O)N[C@@H](CCCCN)C(=O)N[C@@H](CCC(N)=O)C(=O)N[C@@H](CCCCN)C(=O)N[C@@H](C)C(=O)N[C@@H](CCC(N)=O)C(=O)N[C@@H](CCCNC(=N)N)C(=O)N[C@@H](CCC(=O)O)C(=O)N[C@@H](CCC(N)=O)C(=O)N[C@@H](C)C(=O)N[C@@H](CCC(=O)O)C(=O)N[C@H](C(=O)N[C@@H](CC(N)=O)C(=O)NC1(C(=O)N[C@@H](CCC(N)=O)C(=O)N[C@H](C(=O)N[C@@H](CC(C)C)C(=O)N[C@@H](C)C(=O)N[C@@H](CCC(N)=O)C(=O)N[C@H](C(N)=O)C(C)C)[C@@H](C)CC)CCNCC1)[C@@H](C)O)[C@@H](C)CC)[C@@H](C)CC)C(C)C)C(C)C [compound 152] (Ac-IVLSLD[dV]PIKLK([γGlu-C16 diacid])KILLEQEKQKAQREQAETN[Api]QILAQV-NH2)
EC50 (human CRF2a receptor): 0.51 nM
Emax (% I) (CFR1R receptor): 25 % I
EC50 (CFR1R receptor): > 250 nM

CC[C@H](C)[C@H](NC(C)=O)C(=O)N[C@H](C(=O)N[C@@H](CC(C)C)C(=O)N[C@@H](CO)C(=O)N[C@@H](CC(C)C)C(=O)N[C@@H](CC(=O)O)C(=O)N[C@H](C(=O)N1CCC[C@H]1C(=O)N[C@H](C(=O)N[C@@H](CCCCN)C(=O)N[C@@H](CC(C)C)C(=O)N[C@@H](CCCCNC(=O)CC[C@H](NC(=O)CCCCCCCCCCCCCCC(=O)O)C(=O)O)C(=O)N[C@@H](CCCCN)C(=O)N[C@H](C(=O)N[C@@H](CC(C)C)C(=O)N[C@@H](CC(C)C)C(=O)N[C@@H](CCC(=O)O)C(=O)N[C@@H](CCC(N)=O)C(=O)N[C@@H](CCC(=O)O)C(=O)N[C@@H](CCCCN)C(=O)N[C@@H](CCC(N)=O)C(=O)N[C@@H](CCCCN)C(=O)N[C@@H](CCCCN)C(=O)N[C@@H](CCC(N)=O)C(=O)N[C@@H](CCCNC(=N)N)C(=O)N[C@@H](CCC(=O)O)C(=O)N[C@@H](CCC(N)=O)C(=O)N[C@@H](C)C(=O)N[C@@H](CCC(=O)O)C(=O)N[C@H](C(=O)N[C@@H](CC(N)=O)C(=O)NC(C)(C)C(=O)N[C@@H](CCC(N)=O)C(=O)N[C@H](C(=O)N[C@@H](CC(C)C)C(=O)N[C@@H](C)C(=O)N[C@@H](CCC(N)=O)C(=O)N[C@H](C(N)=O)C(C)C)[C@@H](C)CC)[C@@H](C)O)[C@@H](C)CC)[C@@H](C)CC)C(C)C)C(C)C [compound 39] (Ac-IVLSLDVPIKLK([γGlu-C16 diacid])KILLEQEKQKKQREQAETN[Aib]QILAQV-NH2)
EC50 (human CRF2a receptor): 0.53 nM
Emax (% I) (CFR1R receptor): 2 % I
EC50 (CFR1R receptor): > 250 nM
